RP-LC retention time data for 80 molecules are collected here from the METLIN SMRT retention time set (Domingo-Almenara et al. 2019).

The series in a line: gradient 5% acetonitrile 3 min, to 50% in 2 min, to 85% in 15 min, held 3 min, 100 µL/min. Conditions: column: Zorbax Extend-C18 2.1 x 50 mm; eluents: water / acetonitrile, 0.1% formic acid. In short, it runs like this:
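Each retention time is based on an adduct peak selected computationally and verified by manual inspection. Measurements used HPLC–quadrupole time-of-flight mass spectrometry in positive and negative ionization mode on mixtures of ~100 pure standards. Chromatography ran on a Zorbax Extend-C18 column (2.1 × 50 mm, 1.8 μm) at 100 μL/min with water and acetonitrile, each containing 0.1% formic acid, and dead and dwell volumes of 40 μL and 900 μL.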
Consider `Cc1ccc(C)c(N2CCN(c3ccc4cc(S(=O)(=O)N5CCCCC5)ccc4n3)CC2)c1`, for which the RP-LC retention time was determined as 1360 s.

In the case of `CCC(C)NC(=O)N1CCN(c2cc(-c3ccc(OC)c(OC)c3)ncn2)CC1` (stereo not given), the RP-LC retention time stood at 621 s.

In turn, `CCn1cc(-c2nc(C)c(C(=O)NCc3cc(F)cc(F)c3)s2)c2cccnc21` came in with an RP-LC retention time of 884 s.

As to `COc1cc(OC)c(OC)cc1CN1C[C@@H]2C(=O)N(C)C(=O)[C@@H]2C1`, the RP-LC retention time was 570 s.

Turning to `CC(C)n1cnc2cc(CNC(=O)c3ccccc3F)ccc21`, the RP-LC retention time turned out to be 606 s.

`C=CCN(Cc1nc(-c2ccc(C)cc2)no1)C(=O)Nc1cccc(C)c1` gave an RP-LC retention time of 1110 s.

For the molecule `Cc1cc(N2CCN(C)CC2)nc2ccc(NC(=O)Nc3ccccc3)cc12`, the RP-LC retention time is 564 s.

`COCCN(CC1(C)CCOCC1)C(=O)c1ccc(Cl)cc1` displayed an RP-LC retention time of 838 s.

In the case of `CC(C)OCCCNC(=O)CN1c2ccc(F)cc2-c2ccccc2S1(=O)=O`, the RP-LC retention time amounted to 890 s.

In turn, `O=C(NCc1ccc(F)cc1)C1CCN(S(=O)(=O)c2ccc(-c3noc(C4CC4)n3)cc2)CC1` displayed an RP-LC retention time of 1020 s.

With `COC(=O)c1cccc(C(=O)NC2(c3nc(C)no3)CCCCC2)c1`, the RP-LC retention time stood at 849 s.

Turning to `COc1ccc(NS(=O)(=O)c2cc3n(c2)CCCN(C)C3=O)cc1Cl`, the RP-LC retention time was determined as 696 s.

As for `Cc1noc(C)c1CN1CCC(NC(=O)c2ccc3c(c2)OCO3)CC1`, the RP-LC retention time came to 590 s.

As for `Cc1nn(CC(=O)NCCc2c[nH]c3ccc(Cl)cc23)c(=O)c2c(C)n(-c3ccccc3)nc12`, the RP-LC retention time was 908 s.

Molecule `Cc1ccc(CNC(=O)CCNc2c(-c3cccc(F)c3)nc3cnccn23)o1` registered an RP-LC retention time of 700 s.

`COc1ccc(N2CC(c3noc(-c4cccc(OC(F)(F)F)c4)n3)CC2=O)cc1` (stereo not given) registered an RP-LC retention time of 1050 s.

For the molecule `CCN(CC)CCNCc1ccc(-c2ccc(Cl)cc2)o1`, the RP-LC retention time worked out at 591 s.

For `O=C(NCc1ccc(F)cc1Cl)C1CCCN(c2nccnc2Sc2ccccc2)C1` (stereo not given), the RP-LC retention time stood at 1100 s.

Molecule `COc1ccc(N2CCN(C(=O)Cn3nc4nc(N5CCCC5)ccn4c3=O)CC2)cc1` registered an RP-LC retention time of 639 s.

Consider `COCC(=O)Nc1cnc(-c2cccc(Cl)c2)nc1`, for which the RP-LC retention time was 872 s.

The molecule `CCN(CC)C(=O)CCC1CCCN(c2cc(NC3CC3)ncn2)C1` (stereo not given) came in with an RP-LC retention time of 643 s.

Molecule `O=S(=O)(c1ccc(-c2ccno2)s1)N1CCN(c2ccccn2)CC1` had an RP-LC retention time of 680 s.

`CCOc1cccc(CNc2nc3ccncc3n(C(C)C)c2=O)c1` returned an RP-LC retention time of 687 s.

For `COc1ccc(-c2ccc(C(=O)N3CCCc4ccccc43)o2)c([N+](=O)[O-])c1`, the RP-LC retention time was determined as 976 s.

With `COC(=O)c1ccccc1S(=O)(=O)N1CCc2c(c(-c3nnc(-c4ccccc4F)o3)nn2C)C1`, the RP-LC retention time worked out at 873 s.

As for `Cc1ccn2cc(C(=O)NCCCN3CCCC3=O)nc2c1`, the RP-LC retention time stood at 535 s.

`Cc1cc(N2CCCC2)n2nc(CN(C)Cc3ccccc3)nc2n1` showed an RP-LC retention time of 593 s.

The molecule `Cc1ccn2cc(-c3ccc(NS(=O)(=O)c4ccc5cccc6c5c4CC6)cc3)nc2n1` displayed an RP-LC retention time of 748 s.

Molecule `Cc1ccc2c(c1)C(O)(CC(=O)c1ccc(F)cc1)C(=O)N2` (stereo not given) displayed an RP-LC retention time of 717 s.

`Cc1cccc(CN2CC(c3noc(C4CCCN4CC4CC4)n3)C2)c1` (stereo not given) registered an RP-LC retention time of 526 s.

For `Cc1ccc2nc(N3CCN(c4ccccc4)CC3)c(-c3noc(C)n3)cc2c1`, the RP-LC retention time was determined as 699 s.

For `O=C(c1ccncc1)N1CCC2(CC1)N=C(c1ccccc1)NO2`, the RP-LC retention time stood at 611 s.

For the molecule `CC1=C(c2ccc(F)cc2)S(=O)(=O)N=C1N1CCC(NC(=O)CCC(C)C)CC1`, the RP-LC retention time amounted to 844 s.

The molecule `CCCc1noc(-c2cccnc2N2CCCN(Cc3ccc(Cl)cc3)CC2)n1` returned an RP-LC retention time of 754 s.

In the case of `CN(C)c1ccc(CNC(=O)C2CCN(S(=O)(=O)c3ccc4c(c3)NC(=O)CO4)CC2)cc1`, the RP-LC retention time was determined as 598 s.

Molecule `CCCCn1c(=O)c2ccccc2n(Cc2nc(-c3ccccc3C)no2)c1=O` displayed an RP-LC retention time of 1240 s.

`NS(=O)(=O)c1ccc(CCNC(=O)c2ccc(-n3cnnn3)cc2)cc1` showed an RP-LC retention time of 622 s.

`O=C(Nc1ncc(Cc2ccc(F)cc2)s1)c1ccc([N+](=O)[O-])cc1` came in with an RP-LC retention time of 937 s.

In turn, `COc1ccccc1-c1nnc(-c2ccc(OC)c(S(=O)(=O)N3CCCCC3)c2)o1` returned an RP-LC retention time of 937 s.

`CCN(CC)C(=O)c1ccc2c(c1)N(CC(=O)N1CCN(c3ncccn3)CC1)C(=O)CO2`: the RP-LC retention time was determined as 666 s.

Molecule `COc1ccc(C(=S)N2CCN(c3ccccc3C)CC2)cc1` had an RP-LC retention time of 1260 s.

`O=C(Nc1ccc(F)cc1)OCCOc1ccc([N+](=O)[O-])cc1` had an RP-LC retention time of 1030 s.

Molecule `COC(=O)c1ccc(NC(=O)N2CCCC2c2c(C)noc2C)cc1` (stereo not given) registered an RP-LC retention time of 751 s.

The molecule `CCOC(=O)c1c(S(=O)(=O)N2CCC(C(=O)NCc3ccc(C)cc3)CC2)c(C)n(CC)c1C` had an RP-LC retention time of 895 s.

Regarding `Cc1ccc(S(=O)(=O)[C@H]2CS(=O)(=O)C[C@@H]2N2CCN(c3ccccc3)CC2)cc1`, the RP-LC retention time turned out to be 920 s.

The molecule `Cc1ccc(S(=O)(=O)Nc2ccc(C)n(CC(=O)O)c2=O)cc1` registered an RP-LC retention time of 694 s.

Take `COCC1CN(S(=O)(=O)Cc2ccc(C)c(C)c2)CC12CCNCC2` (stereo not given): the RP-LC retention time is 654 s.

`O=C(Nc1ccccc1F)N1CC(Oc2cccc(-c3nc(-c4ccccc4)no3)c2)C1` showed an RP-LC retention time of 1140 s.

The molecule `CC(C)N1CCN(C(=O)c2cn3ccnc(-c4ccccc4)c3n2)CC1` came in with an RP-LC retention time of 602 s.

Turning to `O=C(C1CCCN(c2nc3cccnc3s2)C1)N1CCCCCC1` (stereo not given), the RP-LC retention time stood at 795 s.

`NC(=O)[C@@H]1C[C@H](Oc2cccnc2)CN1C(=O)c1cccs1` gave an RP-LC retention time of 532 s.

As for `Cc1cnc(C2CN(C(=O)c3cccn3C)C2)n1CC1CC1`, the RP-LC retention time is 608 s.

The molecule `COC(=O)c1c(C)[nH]c(C(=O)N2CCC(CC(=O)NCCCc3ccccc3)CC2)c1C` showed an RP-LC retention time of 867 s.

Take `CN(Cc1ccccc1)c1ccc(-c2noc(CN3CCC4(CC3)OCCO4)n2)cn1`: the RP-LC retention time worked out at 745 s.

Molecule `Cc1cc(Cl)ccc1-n1ncc2c(N3CCN(C)CC3)ncnc21` registered an RP-LC retention time of 633 s.

For `O=C1CCCCC(CNC(=O)C2(c3ccccc3)CC2)N1` (stereo not given), the RP-LC retention time came to 697 s.

In turn, `CO[C@H]1C(=O)N(C(C)C)[C@H]1C1CCN(S(=O)(=O)Cc2ccccc2F)CC1` yielded an RP-LC retention time of 831 s.

Molecule `CCOC(=O)c1noc2nc(C)nc(Nc3cccc(CC)c3)c12` yielded an RP-LC retention time of 1140 s.

In the case of `Cn1cnc2cc(CNC(=O)CCc3ccccc3)ccc21`, the RP-LC retention time worked out at 604 s.

Molecule `CN(C)CCNCc1ccc(-c2cc(Cl)cc(Cl)c2)o1` came in with an RP-LC retention time of 597 s.

As to `Cc1nnc(CNC(=O)c2cccc(-n3cnnn3)c2)o1`, the RP-LC retention time stood at 567 s.

In turn, `CCC(CC)NC(=O)C1CCN(c2nc3ccc(-c4cncnc4)nc3s2)CC1` displayed an RP-LC retention time of 810 s.

Molecule `Cc1ccc(N2CCN(Cc3nc(-c4ccc(N5CCOCC5)nc4)no3)CC2)cc1` registered an RP-LC retention time of 791 s.

As to `CN(CC(=O)N1CCCCC1)S(=O)(=O)c1ccc2c(c1)CCCC(=O)N2`, the RP-LC retention time stood at 676 s.

Consider `Cc1cc(C)n2nc(-c3ccccc3)c(C)c2n1`, for which the RP-LC retention time came out at 906 s.

The molecule `COc1ccc(Cn2nccc2NC(=O)c2cc(=O)c3cc(Cl)ccc3o2)cc1` gave an RP-LC retention time of 866 s.

`O=C(CCn1cnc2cc(-c3noc(-c4cccc(F)c4)n3)ccc21)N1CCCC1` returned an RP-LC retention time of 765 s.

As to `Cc1ccccc1-c1nc(C2CCN(S(=O)(=O)c3ccc4c(c3)CCC4)CC2)no1`, the RP-LC retention time stood at 1130 s.

In turn, `O=C1CN(S(=O)(=O)c2cccc(Cl)c2)CC2(CCOCC2)N1CC1CC1` registered an RP-LC retention time of 877 s.

As to `Cc1sc(NC(=O)c2ccccc2)c(CN(C)C)c1C`, the RP-LC retention time stood at 625 s.

Regarding `O=C(Nc1ccc2c(c1)OCO2)N(Cc1ccsc1)CC(F)(F)F`, the RP-LC retention time was found to be 858 s.

For `COc1cccc(S(=O)(=O)N2CCC3(CC2)CC(OC)CCO3)c1` (stereo not given), the RP-LC retention time was found to be 865 s.

Take `CC1CCCN(CCCNC(=O)CCCn2c(=O)c3cccn3c3ccc(Br)cc32)C1` (stereo not given): the RP-LC retention time was found to be 677 s.

In turn, `O=C(C1CC1)N1CCC(Cc2noc(C3CC3)n2)C1` (stereo not given) yielded an RP-LC retention time of 686 s.

Take `Clc1cccc(-c2nc3ccc(Cl)cn3c2Nc2ccc3c(c2)OCCO3)c1`: the RP-LC retention time amounted to 939 s.

Consider `CSc1ncccc1C(=O)N1CCCn2nc(-c3cccc(Cl)c3)cc2C1`, for which the RP-LC retention time was 827 s.

Regarding `O=C(NCCC1=CCCCC1)c1ccc2c(c1)NC(=O)C1CCCCN21` (stereo not given), the RP-LC retention time is 930 s.

Take `Cc1noc(-c2cccc(OC3CN(S(=O)(=O)c4c(C)nn(C)c4C)C3)c2)n1`: the RP-LC retention time was found to be 850 s.

Regarding `COc1ccccc1NC(=O)N1CCN(Cc2nc3ccc(Cl)cc3o2)CC1`, the RP-LC retention time worked out at 731 s.

`CC1CCN(S(=O)(=O)c2ccc3nc(N4CCN(c5ccc(F)cc5)CC4)ccc3c2)CC1` gave an RP-LC retention time of 1190 s.
